Data reported in ChEMBL document CHEMBL2424546, “Synthesis, transformation and biological evaluation of 2,3-secotriterpene acetylhydrazones and their derivatives” (Eur J Med Chem, 2013).

How the values were obtained:
[1] = test system: Vesicular stomatitis Indiana virus; assay: Antiviral activity against vesicular stomatitis virus Indiana infected in pig PEK cells assessed as inhibition of virus replication after 48 hrs by MTT assay; type: functional, organism-based
RD [2] = assay: Induction of apoptosis in human RD cells assessed as damaged cells at 10.9 uM after 6 hrs by annexinV-FITC/propidium iodide staining-based flow cytometry (reference value: 0.84%); type: cell-based
[3] = Cytotoxicity against human MS cells after 72 hrs ny MTT assay; type: cell-based
[4] = Cytotoxicity against pig PEK cells after 48 hrs by MTT assay; type: cell-based, Sus scrofa
RD [5] = assay: Induction of apoptosis in human RD cells assessed as late apoptotic/necrotic cells at 10.9 uM after 6 hrs by annexinV-FITC/propidium iodide staining-based flow cytometry (reference value: 1.20%); type: cell-based
RD [6] = assay: Induction of apoptosis in human RD cells at 10.9 uM after 6 hrs by annexinV-FITC/propidium iodide staining-based flow cytometry relative to control; type: cell-based
[7] = Therapeutic index, ratio of IC50 for pig PEK cells to EC50 for vesicular stomatitis virus Indiana infected in pig PEK cells; type: cell-based; conditions: read-out: Ratio IC50/EC50
RD [8] = assay: Induction of apoptosis in human RD cells assessed as early apoptotic cells at 10.9 uM after 6 hrs by annexinV-FITC/propidium iodide staining-based flow cytometry (reference value: 1.21%); type: cell-based
[9] = Induction of apoptosis in human RD cells assessed as viable cells at 10.9 uM after 6 hrs by annexinV-FITC/propidium iodide staining-based flow cytometry (reference value: 96.85%); type: cell-based; conditions: read-out: Activity
A549 = assay: Cytotoxicity against human A549 cells after 72 hrs ny MTT assay; type: cell-based; conditions: A549, 72 h
[10] = Cytotoxicity against human TE-32 cells after 72 hrs ny MTT assay; type: cell-based; conditions: RD
RD [11] = assay: Induction of apoptosis in human RD cells assessed as damaged cells at 4.5 uM after 6 hrs by annexinV-FITC/propidium iodide staining-based flow cytometry (reference value: 0.84%); type: cell-based
RD [12] = assay: Induction of apoptosis in human RD cells assessed as late apoptotic/necrotic cells at 4.5 uM after 6 hrs by annexinV-FITC/propidium iodide staining-based flow cytometry (reference value: 1.20%); type: cell-based
[13] = Induction of apoptosis in human RD cells assessed as viable cells at 4.5 uM after 6 hrs by annexinV-FITC/propidium iodide staining-based flow cytometry (reference value: 96.85%); type: cell-based; conditions: read-out: Activity
RD [14] = assay: Induction of apoptosis in human RD cells assessed as early apoptotic cells at 4.5 uM after 6 hrs by annexinV-FITC/propidium iodide staining-based flow cytometry (reference value: 1.21%); type: cell-based
[15] = Vesicular stomatitis Indiana virus, PEK, 48 h, read-out: EC50

SMILES: C=C(C)[C@@H]1CC[C@]2(C(=O)NC(C)C)CC[C@]3(C)[C@H](CC[C@@H]4[C@@](C)(CC#N)[C@H](C(C)(C)/C=N/NC(C)=O)CC[C@]43C)[C@@H]12
- EC50 ([1]; pek): Not Active

SMILES: C=C(C)[C@@H]1CC[C@]2(C(=O)OC)CC[C@]3(C)[C@H](CC[C@@H]4[C@@](C)(CC#N)[C@H](C(C)(C)[C@H]5OC(C)=NN5C(C)=O)CC[C@]43C)[C@@H]12
- Activity (RD [2]): 1.51%
- EC50 [1, 15]: 0.62 µM
- IC50 [3]: 5.84 µM
- Activity [4]: Toxic
- Activity (RD [5]): 2.21%
- fold change (FC) (RD [6]): 3
- selectivity ratio [7]: 3
- Activity (RD [8]): 3.83%
- viability at 6 h, 10.9 µM [9]: 92.5%
- IC50 (A549): 18.6 µM
- IC50 [10]: 10.9 µM

SMILES: C=C(C)[C@@H]1CC[C@]2(C(=O)OC)CC[C@]3(C)[C@H](CC[C@@H]4[C@@](C)(CC#N)[C@H](C(C)(C)[C@@H]5OC(C)=NN5C(C)=O)CC[C@]43C)[C@@H]12
- EC50 [1, 15]: 0.34 µM
- IC50 [3]: 110 µM
- Activity [4]: Toxic
- selectivity ratio [7]: 5
- IC50 (A549): 133 µM
- IC50 [10]: > 200 µM

SMILES: CC(=O)N1N=C(C)O[C@@H]1C(C)(C)[C@@H]1CC[C@]2(C)[C@H](CC[C@@H]3[C@H]4[C@H]5OC[C@@]4(CCC5(C)C)CC[C@]32C)[C@@]1(C)CC#N
- EC50 ([1]; pek): Not Active
- IC50 [3]: 11.5 µM
- IC50 (A549): 147 µM
- IC50 [10]: 82.2 µM

SMILES: CC(=O)N1N=C(C)O[C@H]1C(C)(C)[C@@H]1CC[C@]2(C)[C@H](CC[C@@H]3[C@H]4[C@H]5OC[C@@]4(CCC5(C)C)CC[C@]32C)[C@@]1(C)CC#N
- EC50 ([1]; pek): Not Active
- IC50 [3]: 40.3 µM
- IC50 (A549): 95.5 µM
- IC50 [10]: 85 µM

SMILES: COC(=O)[C@@]1(C)CC[C@]2(C)CC[C@]3(C)C(=CC(=O)[C@@H]4[C@@](C)(CC#N)[C@H](C(C)(C)[C@H]5OC(C)=NN5C(C)=O)CC[C@]43C)[C@@H]2C1
- IC50 [3]: 88.7 µM
- IC50 (A549): 133 µM
- IC50 [10]: 166 µM

SMILES: COC(=O)[C@@]1(C)CC[C@]2(C)CC[C@]3(C)C(=CC(=O)[C@@H]4[C@@](C)(CC#N)[C@H](C(C)(C)[C@@H]5OC(C)=NN5C(C)=O)CC[C@]43C)[C@@H]2C1
- IC50 [3]: 71.2 µM
- IC50 (A549): > 200 µM
- IC50 [10]: > 200 µM

SMILES: C=C(C)[C@@H]1CC[C@]2(C(=O)OC)CC[C@]3(C)[C@H](CC[C@@H]4[C@@](C)(CC#N)[C@H](C(C)(C)/C=N/N(C(C)=O)C(C)=O)CC[C@]43C)[C@@H]12
- EC50 ([1]; pek): Not Active
- selectivity ratio [7]: 2

SMILES: CC(=O)N(/N=C/C(C)(C)[C@@H]1CC[C@]2(C)[C@H](CC[C@@H]3[C@H]4[C@H]5OC[C@@]4(CCC5(C)C)CC[C@]32C)[C@@]1(C)CC#N)C(C)=O
- EC50 [1, 15]: 15.9 µM
- selectivity ratio [7]: 8

SMILES: C=C(C)[C@@H]1CC[C@]2(C(=O)OC)CC[C@]3(C)[C@H](CC[C@@H]4[C@@](C)(CC#N)[C@H](C(C)(C)/C=N/NC(C)=O)CC[C@]43C)[C@@H]12
- EC50 [1, 15]: 1.58 µM
- selectivity ratio [7]: 37

SMILES: CC(=O)N/N=C/C(C)(C)[C@@H]1CC[C@]2(C)[C@H](CC[C@@H]3[C@H]4[C@H]5OC[C@@]4(CCC5(C)C)CC[C@]32C)[C@@]1(C)CC#N
- EC50 [1, 15]: 0.41 µM
- selectivity ratio [7]: 149

SMILES: COC(=O)[C@@]1(C)CC[C@]2(C)CC[C@]3(C)C(=CC(=O)[C@@H]4[C@@](C)(CC#N)[C@H](C(C)(C)/C=N/NC(C)=O)CC[C@]43C)[C@@H]2C1
- EC50 [1, 15]: 18.4 µM
- selectivity ratio [7]: 2

SMILES: C=C(C)[C@@H]1CC[C@]2(C(=O)NCCC(=O)OCC)CC[C@]3(C)[C@H](CC[C@@H]4[C@@](C)(CC#N)[C@H](C(C)(C)/C=N/NC(C)=O)CC[C@]43C)[C@@H]12
- EC50 ([1]; pek): Not Active

SMILES: C=C(C)[C@@H]1CC[C@]2(C(=O)O)CC[C@]3(C)[C@H](CC[C@@H]4[C@@]5(C)CC[C@H](O)C(C)(C)[C@@H]5CC[C@]43C)[C@@H]12 [BETULINIC ACID]
- EC50 [1, 15]: 160 µM
- IC50 [3]: 16 µM
- selectivity ratio [7]: 0.07
- IC50 (A549): 44 µM
- IC50 [10]: 23.9 µM

SMILES: CC[C@@]1(O)C(=O)OCc2c1cc1n(c2=O)Cc2cc3ccccc3nc2-1 [CAMPTOTHECIN]
- Activity (RD [11]): 0.67%
- IC50 [3]: 0.23 µM
- Activity (RD [12]): 3.1%
- viability at 6 h, 4.5 µM [13]: 92.2%
- IC50 (A549): 37.1 µM
- Activity (RD [14]): 4.08%
- IC50 [10]: 4.47 µM
